# Test system: C57BL/6 mice
# Test: OVA mRNA LNP intramuscular immunization, anti OVA-IgG ELISA
# Format: in vivo
# Conditions: i.m., days 1 and 10
# Source text: LNP with the composition LM02b were used to encapsulate OVA antigen encoded CleanCap® OVA WT mRNA [TriLink L7610] or CleanCap® OVA 5-moU mRNA [TriLink L7210]. A lipid mixture of Ionizable lipid, DOPE, Cholesterol, and PEG-DMG2000, all in ethanol, was mixed with a low PH buffered solution of OVA mRNA at an N/P ratio of 8 using a NanoAssemblr® Ignite™ microfluidic mixer. The LNP were filtered using the Amicon™ ultra filtration technique and characterized for Size, PDI and Encapsulation Efficiency. Size and PDI were measured using dynamic light scattering techniques, and nucleic acid encapsulation efficiency was calculated from the Quant-iT RiboGreen RNA assay. […]
# All animals were handled according to the Institutional Animal Care and Use Committee ethics protocols. […] Aliquots of serum samples were thawed and analyzed at appropriate dilutions for OVA expression and for IgG measurements using standard ELISA techniques.
# Anti OVA-IgG ELISA of serum samples: Sera from the immunized mice were collected at 2 weeks post second immunization. OVA-specific production of IgG in response to OVA-encoded mRNA in various LNPs were measured by ELISA as described supra. […] After 30 minutes of incubation, a stop solution of 2 N sulphuric acid was added and a plate reader was used to determine absorbance at 450 nm. […]
structure (smiles),measurement,value
CCCCC/C=C\C/C=C\CCCCCCCC(=O)O[C@@H]1[C@@H](OC(=O)CCCCCCC/C=C\C/C=C\CCCCC)CO[C@@H]1COC(=O)CCCN1CCCC1 (racemic) [PNI 539],immune response to OVA antigen loaded LNPs,effectively elicit an immune response similar to OVA antigen
